Test results from patent US5719169A, “Substituted benzoylguanidines, their use as a medicament or diagnostic, and medicament containing them” (priority 1993, dated 1998).
pIC50: −log10 of the molar value. Counter-ions that a name gives are not always drawn.

Legend:
[1] = target: T1, Na^+ /H^+ exchanger of rabbit erythrocytes (Oryctolagus cuniculus, UniProt P23791); test: Inhibition of the Na^+ /H^+ exchanger of rabbit erythrocytes (amiloride-sensitive sodium influx, flame photometry); assay type: cell-based, rabbit (New Zealand White); conditions: pH 7.4, 37° C., hyperosmolar salt/sucrose medium
T1 construct: exchanger of rabbit erythrocytes; from tissue; host or cells: erythrocytes in blood of cholesterol-fed New Zealand White rabbits
T1 sequence (P23791 whole entry): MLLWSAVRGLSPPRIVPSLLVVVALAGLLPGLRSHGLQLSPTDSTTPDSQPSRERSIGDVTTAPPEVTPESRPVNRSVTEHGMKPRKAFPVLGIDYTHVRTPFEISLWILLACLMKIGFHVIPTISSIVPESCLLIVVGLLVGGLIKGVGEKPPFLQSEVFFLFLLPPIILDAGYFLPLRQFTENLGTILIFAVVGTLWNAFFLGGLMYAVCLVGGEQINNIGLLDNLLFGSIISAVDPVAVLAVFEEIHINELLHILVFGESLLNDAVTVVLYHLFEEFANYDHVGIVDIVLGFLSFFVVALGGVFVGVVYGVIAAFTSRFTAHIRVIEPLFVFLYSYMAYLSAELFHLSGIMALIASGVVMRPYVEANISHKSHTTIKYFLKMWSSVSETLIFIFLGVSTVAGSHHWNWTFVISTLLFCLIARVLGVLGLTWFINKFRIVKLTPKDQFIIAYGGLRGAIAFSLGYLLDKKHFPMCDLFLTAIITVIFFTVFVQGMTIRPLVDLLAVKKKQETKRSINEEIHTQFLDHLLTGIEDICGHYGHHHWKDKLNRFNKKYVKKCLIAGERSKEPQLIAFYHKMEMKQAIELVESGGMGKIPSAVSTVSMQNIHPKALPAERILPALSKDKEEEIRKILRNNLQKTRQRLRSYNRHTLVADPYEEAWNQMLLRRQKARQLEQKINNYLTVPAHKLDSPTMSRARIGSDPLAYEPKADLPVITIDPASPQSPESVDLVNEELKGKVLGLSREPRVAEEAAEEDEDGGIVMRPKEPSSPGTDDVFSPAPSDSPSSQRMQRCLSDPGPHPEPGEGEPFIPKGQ
From the text: Inhibition of the Na^+ /H^+ exchanger of rabbit erythrocytes
New Zealand White rabbits (Ivanovas) received a standard diet containing 2% cholesterol for six weeks in order to activate the Na^+ /H^+ exchange and thus to be able to determine, by flame photomerry, the Na^+ influx into the erythrocytes via Na^+ /H^+ exchange. The blood was removed from the aural arteries and rendered incoagulable using 25 IU of potassium heparin. A part of each sample was used for the duplicate determination of the hematocrit by means of centrifugation. Aliquots of in each case 100 μl were used for measuring the initial Na^+ content of the erythrocytes.
In order to determine the amiloride-sensitive sodium influx, 100 μl of each blood sample were in each case incubated, at pH 7.4 and 37° C., in 5 ml of a hyperosmolar salt/sucrose medium (mmol/1: 140 NaCl, 3 KCl, 150 sucrose, 0.1 ouabain, 20 tris(hydroxymethyl)aminomethane). The erythrocytes were then washed three times with ice-cold MgCl2 /ouabain solution ([…]: 112 MgCl2, 0.1 ouabain) and hemolyzed in 2.0 ml of distilled water. The intracellular sodium content was determined by flame photometry.
The net influx of Na^+ was calculated from the difference between the initial sodium values and the sodium content of the erythrocytes following incubation. The amiloride-inhibitable sodium influx was calculated from the difference in the sodium content of the erythrocytes following incubation with and without amiloride 3×10^-4 mol/1. This method was also employed in the case of the compounds according to the invention.

[2] = tested on: cardiac arrhythmias; conditions: cited from earlier work

pIC50 [1]	SMILES	antiarrhythmic effect ([2]; Circulation 79, 1257 to 1263 (1989))	hypotensive and saluretic side effects ([2]; in vivo)
6.52	CS(=O)(=O)c1cc(C(=O)N=C(N)N)ccc1Oc1ccc(-c2nccn2Cc2ccccc2)cc1 [Example 1, 4-(1-Benzylimidazol-2-yl)phenoxy-3-methylsulfonylhenzoylguanidine, dihydrochloride]	–	–
6.52	CS(=O)(=O)c1cc(C(=O)N=C(N)N)ccc1Oc1ccc(-c2ncc[nH]2)cc1 [Example 2, 4-(Imidazol-2-yl)phenoxy-3-methylsulfonylbenzoylguanidine, dihydrochloride]	–	–
6.70	CS(=O)(=O)c1cc(C(=O)N=C(N)N)ccc1Oc1ccc(-c2cccnc2)cc1 [Example 3, 4-[4-(3-Pyridyl)phenoxy]-3-methylsulfonylbenzoylguanidine, dihydrochloride]	–	–
6.52	CS(=O)(=O)c1cc(C(=O)N=C(N)N)ccc1Oc1ccc(-c2ccccn2)cc1 [Example 5, 4-[4-(2-Pyridyl)phenoxy]-3-methylsulfonylbenzoylguanidine, dihydrochloride]	–	–
–	N=C(N)NC(=O)c1nc(Cl)c(N)nc1N [amiloride, Amiloride]	only weakly expressed	accompanied by hypotensive and saluretic effects
